This note sets out measurements from US20240041976A1, “COMPOSITION AND USE” (priority 2020, published 2024).

The subject of one assay is MRSA ATCC 33591. Nature of the assay: microbe, parasite or virus in culture. The class given is cell-based, Staphylococcus aureus. The settings on record: Staphylococcus aureus, 24 h, read-out: MIC, single antimicrobial. As for the experimental part:
(§1) Antimicrobial activity was measured using the AAMP assay (Wiegand et al., 2008, Nat. Protoc., Vol. 3(2), p 163-175).
(§2) Synergy testing was done with a microtiter plate checkerboard assay as previously described (Orhan et al., 2005, J. Clin. Microbiol., Vol. 43(1), p 140-143). Briefly, equal amounts of antimicrobial A were applied on microtiter plate 1 in wells A1-H1 and then diluted two-fold to wells 2-12. Similarly, equal amounts of antimicrobial B were applied on microtiter plate 2 in wells A1-A12 and diluted two-fold in wells B-H. Volumes of 50 μl of antimicrobial A from each well of microtiter plate 1 were transferred into microtiter plate 3, except for wells H1-H12. Similarly, the same volumes were transferred from microtiter plate 2 into plate 3, except for wells A1-A8. A 100 μl volume of 25 times diluted ON bacterial culture of MRSA was transferred into each well of plate 3. A 50 μl volume of pure broth was added into each well in lines H1-H12 and A1-A8 which were used to estimate MIC values of pure substances (blank).
(§3) Antimicrobial activity was measured using the AAMP assay as described in Example 2.
(§4) Synergy testing was performed as in Example 2.

Another assay has as its system E. faecium LMGT 3104. The assay is described as follows: microbe, parasite or virus in culture. The class given is cell-based, Enterococcus faecium. The settings on record: Enterococcus faecium, LMGT3104, read-out: MIC, single antimicrobial. As for the experimental part: as §1, §2, §3, §4
Assay [1] has as its system Methicillin-Resistant Staphylococcus aureus. It is filed as in vivo, mice. The note with it: repeat on larger groups; data not shown. Here is the method: The experiment was performed essentially as set out in Example 2, except that the following regimes as described below, were used.
50-70 μl of cream was applied per wound.
Treatment was daily for 4 days.
The rifampicin/MP1 experiment was repeated on a larger group of mice in each category (8 mice for each of rifampicin, MP1, rifampicin+MP1, 8 mice with APO base cream 30% as used for rifampicin and MP1, 7 mice untreated). Seven mice were also treated with fucidin cream (2% fusidic acid in a cream base) as a positive control.

For assay [2], the system named is clinical S. aureus strains from leprosy-associated skin ulcers (biofilms). The assay is described as follows: BOAT on clinical isolates. The note with it: 14 clinical S. aureus isolates. The class given is cell-based, Staphylococcus aureus. The text has this:
Leprosy patients with plantar ulcers who were registered at LEPRA Society, BPHRC, Hyderabad, India during December 2018 through May 2019 (n=31) were enrolled into the study after obtaining an informed consent. The study protocol was approved by the Institutional Ethical Committee at LEPRA Society. A total of thirty-one wound swabs were collected using sterile pure viscose swab (Hi-media, Mumbai, India) and transported immediately for further processing to the microbiology laboratory. One swab was collected from each leprosy foot ulcer. Each swab was inoculated on Blood and McConkey agar and incubated at 37° C. overnight and the plates were examined for growth on the following day. Cultures were identified by colony morphology, Gram staining and other standard tests. […]
The BOAT assay was performed as described previously (Gronseth et al., 2017, Int. J. Pediatr. Otorhinolaryngol., Vol. 103, p 58-64) with some modifications. […] The results were then assessed by monitoring the development (or not) of red formazan (red colour), denoting the retention of metabolic activity by bacterial cells (Moussa et al., 2013, J. Mycol., Vol. 2013; Perez et al., 2010, Lett. Appl. Microbiol., Vol. 51, p 331-337). […] The amount of extracted dye, reflecting the degree of bacterial cell metabolic activity, was then quantified by spectrophotometric readings at 492 nm.

With `C/C=C(\NC(=O)c1csc(-c2csc(-c3ccc4c(n3)-c3csc(n3)[C@H]([C@@H](C)O)NC(=O)c3csc(n3)[C@H](C(C)C)NC(=O)c3csc(n3)/C(=C/C)NC(=O)[C@H]([C@@H](C)O)NC(=O)c3csc-4n3)n2)n1)C(=O)NC[C@@H](C)O` [MP1, micrococcin P1], the MIC in the assay with MRSA ATCC 33591 and in the assay on E. faecium LMGT 3104 was 2.5 µg/mL in each case. Besides, the “antimicrobial effect in the mouse skin wound model” value in assay [1] is given as “Neither MP1 nor the cream base showed any antimicrobial effect”.

B1: Garvicin KS: three-peptide leaderless bacteriocin (GarA, GarB, GarC; SEQ ID NO:6-8), peptides synthesized (peptide, listed as Lactococcus garvieae)
chain 1: MGAIIKAGAKIVGKGVLGGGASWLGWNVGEKIWK
chain 2: MGAIIKAGAKIIGKGLLGGAAGGATYGGLKKIFG
chain 3: MGAIIKAGAKIVGKGALTGGGVWLAEKLFGGK
For the molecule B1, the “antimicrobial activity in BOAT on clinical isolates” value in assay [2] is reported as “showed antimicrobial activity against all the strains”.
